Source: the supplement of paper PMC10307832

Experiments:
Experiment in all cases: relative viability (nuclei count vs DMSO), 5 days (fraction); higher = more cells survive
[1] = compound: C=C(c1ccc(C(=O)O)cc1)c1cc2c(cc1C)C(C)(C)CCC2(C)C [Bexarotene] + CC(=O)c1c(C)c2cnc(Nc3ccc(N4CCNCC4)cn3)nc2n(C2CCCC2)c1=O [Palbociclib] (partner 0.5 µM)
Procedure, shortened: (§1)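 Lung cancer cell lines were seeded in 1536-well plates and dosed by pin tool the next day, with either a single drug or a fixed anchor-drug dose combined with five library-drug doses (not always all listed) spaced in √10 steps. Five days later, one step fixed the cells and stained their nuclei (final 0.05% Triton X-100, 1% formaldehyde, 1 ug/ml Hoechst), and nuclei were counted on 4× images. Relative viability is the nuclei count in treated wells divided by the count in vehicle wells, and each value is the median of duplicate plates.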

[2] = compound: C=C(c1ccc(C(=O)O)cc1)c1cc2c(cc1C)C(C)(C)CCC2(C)C [Bexarotene] + CC(C)C[C@H](NC(=O)[C@H](Cc1ccccc1)NC(=O)c1cnccn1)B(O)O [Bortezomib] (partner 0.002 µM)
Procedure, shortened: as §1

[3] = compound: C=C(c1ccc(C(=O)O)cc1)c1cc2c(cc1C)C(C)(C)CCC2(C)C [Bexarotene] + Cc1nc(Nc2ncc(C(=O)Nc3c(C)cccc3Cl)s2)cc(N2CCN(CCO)CC2)n1 [Dasatinib] (partner 0.075 µM)
Procedure, shortened: as §1

[4] = compound: C=C(c1ccc(C(=O)O)cc1)c1cc2c(cc1C)C(C)(C)CCC2(C)C [Bexarotene] + Cc1nc(NC(=O)N2CCC[C@H]2C(N)=O)sc1-c1ccnc(C(C)(C)C(F)(F)F)c1 [Alpelisib] (partner 2 µM)
Procedure, shortened: as §1

Row | Cell Line | relative viability ([1]; first compound 0.08 µM) | relative viability ([1]; first compound 0.253 µM) | relative viability ([1]; first compound 0.8 µM) | relative viability ([1]; first compound 2.53 µM) | relative viability ([1]; first compound 8 µM) | relative viability ([2]; first compound 0.08 µM) | relative viability ([2]; first compound 0.253 µM) | relative viability ([2]; first compound 0.8 µM) | relative viability ([2]; first compound 2.53 µM) | relative viability ([2]; first compound 8 µM) | relative viability ([3]; first compound 0.08 µM) | relative viability ([3]; first compound 0.253 µM) | relative viability ([3]; first compound 0.8 µM) | relative viability ([3]; first compound 2.53 µM) | relative viability ([3]; first compound 8 µM) | relative viability ([4]; first compound 0.08 µM) | relative viability ([4]; first compound 0.253 µM) | relative viability ([4]; first compound 0.8 µM) | relative viability ([4]; first compound 2.53 µM) | relative viability ([4]; first compound 8 µM)
1 | UMC-11 | 0.308 | 0.355 | 0.316 | 0.267 | 0.339 | 0.877 | 0.796 | 0.8 | 1.03 | 0.637 | 0.485 | 0.516 | 0.516 | 0.514 | 0.493 | 0.971 | 1.02 | 0.954 | 1.04 | 0.955
2 | LC-2-ad | 0.427 | 0.5 | 0.473 | 0.434 | 0.46 | 0.936 | 1.16 | 1.09 | 0.936 | 0.985 | 0.696 | 0.602 | 0.575 | 0.497 | 0.625 | 0.872 | 1.15 | 0.762 | 0.96 | 0.861
3 | A-427 | 0.48 | 0.47 | 0.467 | 0.444 | 0.487 | 0.933 | 0.923 | 0.79 | 0.897 | 0.932 | 0.726 | 0.614 | 0.611 | 0.627 | 0.684 | 1.08 | 1.02 | 0.89 | 0.89 | 0.926
4 | NCI-H322M | 0.437 | 0.469 | 0.487 | 0.531 | 0.532 | 1.3 | 1.4 | 1.26 | 1.17 | 1.32 | 0.282 | 0.266 | 0.264 | 0.261 | 0.3 | 0.846 | 0.881 | 0.809 | 0.771 | 0.874
5 | HCC-366 | 0.424 | 0.42 | 0.365 | 0.416 | 0.4 | 1.07 | 0.979 | 1.02 | 1.08 | 1.06 | 0.737 | 0.67 | 0.613 | 0.649 | 0.621 | 0.529 | 0.408 | 0.411 | 0.489 | 0.463
6 | NCI-H1975 | 0.667 | 0.578 | 0.575 | 0.616 | 0.547 | 0.414 | 0.376 | 0.452 | 0.428 | 0.346 | 0.468 | 0.335 | 0.391 | 0.335 | 0.375 | 0.705 | 0.783 | 0.665 | 0.669 | 0.836
7 | NCI-H1437 | 0.317 | 0.306 | 0.294 | 0.291 | 0.286 | 0.528 | 0.621 | 0.611 | 0.546 | 0.49 | 0.445 | 0.6 | 0.567 | 0.411 | 0.434 | 1.02 | 1.06 | 0.946 | 1.11 | 0.829
8 | NCI-H2009 | 0.32 | 0.239 | 0.201 | 0.226 | 0.322 | 1.16 | 1.27 | 1.13 | 1.08 | 1 | 0.323 | 0.33 | 0.301 | 0.322 | 0.359 | 1.27 | 1.23 | 1.11 | 1.17 | 1.06
